This note sets out measurements from article PMC8954944 (Molecules, 2022).

The subject of assay [1] is c-myc G-quadruplex DNA FRET probe (FAM/TAMRA) (DNA, G4) TGGGGAGGGTGGGGAGGGTGGGGAAGG
Nature of the assay: FRET melting. The conditions noted are these: 100 mM KCl, 10 mM Na3AsO4; 10 mM Tris-HCl pH 7.4; 0.2 μM DNA; complex 0.15 or 0.30 μM, not given.

Assay [2] concerns c-myc G-quadruplex DNA (DNA, G4) TGGGGAGGGTGGGGAGGGTGGGGAAGG
Nature of the assay: UV-vis titration. The conditions noted are these: 100 mM KCl.

The test system is the same in assay [3]. As to the kind of experiment: fluorescent intercalator displacement. The conditions noted are these: 100 mM KCl, thiazole orange 1 μM displaced, DNA 0.5 μM.
For assay [4], the system named is human liver carcinoma HepG2 cells. Nature of the assay: MTT assay, HepG2. Format: cell-based. The following applies: 72 h, 570 nm.
Assay [5] has as its system human breast cancer MCF-7 cells. Nature of the assay: MTT assay, MCF-7. It is filed as cell-based. The conditions noted are these: 72 h, 570 nm. (Formazan colour is commonly taken as a measure of viable cells.)
Assay [6] concerns human glioblastoma U87 cells. Nature of the assay: MTT assay, U87. It is filed as cell-based. The conditions noted are these: 72 h, 570 nm.
Assay [7] has as its system human lung cancer A549 cells. As to the kind of experiment: MTT assay, A549. It is filed as cell-based. The following applies: 72 h, 570 nm.
For assay [8], the system named is human keratinocyte Hacat cells. Nature of the assay: Cytotoxic activity against Hacat cells. Format: cell-based. The conditions noted are these: 72 h incubation. How it is done: The cytotoxic activity of the ligands and arene Ru(II)-modified compounds […] 1 . The cytotoxic activities of complexes against human keratinocyte […] 72 h incubation. Comp. L1 L2 3 6 […] 7. Multiple gene expression in glioblastoma multiforme Figure S20. Multiple gene expression in glioblastoma multiforme(Copyright © 2017 […], Boxi Kang. Zhang's Lab.). The darker the color, the higher the gene expression in glioblastoma multiforme. As shown in the heat map, c-myc gene is highly expressed in glioblastoma multiforme (GBM) compared with other G-quadruplex DNA (Tel, Bcl-2, c-kit, k-ras). 8. […]

The next assay concerns human normal liver cells. Nature of the assay: Toxicity to human normal liver cells. The conditions noted are these: read-out: IC50 human normal liver cells.
A further assay relates to c-myc G-quadruplex DNA. As to the kind of experiment: UV–vis absorption titration with c-myc G-quadruplex DNA. It is filed as binding. The conditions noted are these: 10 mM Tris-HCl buffer (pH 7.4), 100 mM KCl, [DNA]=100 μM. The protocol:
Electron spectroscopy is one of the most widely used techniques to evaluate the binding ability between metal complexes and DNA. UV–vis spectra titration experiments were conducted to further clarify the binding behavior of these complexes with c-myc G-quadruplex DNA.
The intramolecular c-myc G-quadruplex DNA structure was prepared by incubating Pu22 in a 10 mM Tris-HCl buffer (pH 7.4) containing 100 mM KCl, which was heated to 95 °C for 5 min, cooled to room temperature overnight, and stored at 4 °C for 24 h. The binding parameters of the arene Ru(II) complexes and c-myc G-quadruplex DNA were measured at room temperature using the UV–vis absorption spectra (Shimadzu UV-2550 spectrophotometer). […] The intrinsic binding constant (Kb) was calculated using the following:[DNA]/(εa − εf) = [DNA]/(εb − εf) + 1/[Kb(εb − εf)](2)
In the formula, εa, εf, and εb are the apparent coefficients, and the free and fully bound forms of the metal complex extinction coefficients, respectively. […] Kb is the ratio of the slope to the intercept.

Where [9] appears, read: 10 mM Tris-HCl pH 7.4, room temperature, 20 μM complex.
The mark [10] stands for this setting: 10 mM Tris-HCl pH 7.4, room temperature.

The ΔTm is the shift of the melting midpoint relative to a reference. Consider `Cc1ccc(C(C)C)cc1.Fc1ccc(-c2nc3c4cccnc4c4ncccc4c3[nH]2)c(F)c1.[Cl-].[Ru+2]`, for which, in assay [1], the ΔTm is 0.4 °C. In addition, the Kb in assay [2] (setting [9]) is ~ 14.6 × 10^6 M^-1. For the same compound, the DC50 in assay [3] (setting [10]) turned out to be 15.6 µM.
Taken in the same sequence, the figures for `Cc1ccc(C(C)C)cc1.Fc1cccc(-c2nc3c4cccnc4c4ncccc4c3[nH]2)c1F.[Cl-].[Ru+2]` were 5.07 °C, ~ 134 × 10^6 M^-1 and 10.26 µM.
Consider `Cc1ccccc1.Fc1ccc(-c2nc3c4cccnc4c4ncccc4c3[nH]2)c(F)c1.[Cl-].[Ru+2]`, for which the ΔTm in assay [1] was 6.03 °C. In addition, the Kb in [2] is recorded as ~ 41.1 × 10^6 M^-1. This compound also returned a DC50 in [3] (setting [10]) of 10.8 µM.
For `Cc1ccccc1.Fc1cccc(-c2nc3c4cccnc4c4ncccc4c3[nH]2)c1F.[Cl-].[Ru+2]`, in that order: 15.05 °C, ~ 110 × 10^6 M^-1 and 9.93 µM.
With `Fc1ccc(-c2nc3c4cccnc4c4ncccc4c3[nH]2)c(F)c1`, in assay [2] (10 mM Tris-HCl pH 7.4, DNA 100 μM, no significant absorption change), the binding entry was “weak”.
Turning to `Fc1ccc(-c2nc3c4cccnc4c4ncccc4c3[nH]2)c(F)c1.[Cl-].[Ru+2].c1ccccc1`, in assay [1], the ΔTm turned out to be 7.23 °C. For the same compound, the Kb in [2] (setting [9]) was ~ 48.3 × 10^6 M^-1. For the same compound, the DC50 in [3] (10 mM Tris-HCl pH 7.4, text b19 prints 7.8) stood at 7.6 µM.
Turning to `Fc1cccc(-c2nc3c4cccnc4c4ncccc4c3[nH]2)c1F.[Cl-].[Ru+2].c1ccccc1`, the thermal shift (ΔTm) in [1] was determined as 13.09 °C. Further, the Kb in assay [2] (setting [9]) is reported as ~ 67.5 × 10^6 M^-1. In addition, the DC50 in [3] (setting [10]) came out at 6.6 µM.
For orientation: IC50 means the concentration at which inhibition is half-maximal. Turning to `N.N.[Cl][Pt][Cl]` [Cisplatin, reference compound], the 50% inhibitory concentration (IC50) in assay [4] is 9.9 ± 0.06 µM; in assay [5], 15.3 ± 0.18 µM; in assay [6] it was 32.6 ± 0.85 µM; in [7], 17.3 ± 0.26 µM.
In the case of `Fc1cccc(-c2nc3c4cccnc4c4ncccc4c3[nH]2)c1F` [L1, 2-(2,3-Di-fluorophenyl) Imidazole [4,5f][1,10]-Phenanthroline], the IC50 in assay [4] is 0.29 ± 0.01 µM; in [5], 4.25 ± 0.18 µM; in [6], 14.3 ± 0.47 µM; in assay [8], 1.85 ± 0.03 µM; in [7], 7.99 ± 0.05 µM; with human normal liver cells, 0.34 µM.
On to `Fc1ccc(-c2nc3c4cccnc4c4ncccc4c3[nH]2)c(F)c1` [L2, 2-(2,4-Di-fluorophenyl) Imidazole[4,5f][1,10]-Phenanthroline], for which the 50% inhibitory concentration (IC50) in assay [4] turned out to be 0.12 ± 0.01 µM; in assay [5] it was 1.48 ± 0.09 µM; in assay [6], 5.87 ± 0.27 µM; in [8], 2.72 ± 0.06 µM; in assay [7], 3.42 ± 0.13 µM; in the assay on human normal liver cells, 0.18 µM. Also, the “UV absorption peak of the ligand after the addition of DNA” value with c-myc G-quadruplex DNA was “did not change significantly”.
